A word on the EC50: it is the concentration at which the effect is half-maximal.

The values that follow come from patent publication EP1585727B1, “INDOLES USEFUL IN THE TREATMENT OF ANDROGEN-RECEPTOR RELATED DISEASES” (priority 2002, dated 2004).

In test [1] the target is T1, human androgen receptor (Homo sapiens, UniProt P10275).
T1 construct: expressed in transfected cells; host or cells: Chinese hamster ovary (CHO) cells, cell line CHO-AR-pMMTV-LUC 1G12-A5-CA
T1 sequence (P10275 1-920): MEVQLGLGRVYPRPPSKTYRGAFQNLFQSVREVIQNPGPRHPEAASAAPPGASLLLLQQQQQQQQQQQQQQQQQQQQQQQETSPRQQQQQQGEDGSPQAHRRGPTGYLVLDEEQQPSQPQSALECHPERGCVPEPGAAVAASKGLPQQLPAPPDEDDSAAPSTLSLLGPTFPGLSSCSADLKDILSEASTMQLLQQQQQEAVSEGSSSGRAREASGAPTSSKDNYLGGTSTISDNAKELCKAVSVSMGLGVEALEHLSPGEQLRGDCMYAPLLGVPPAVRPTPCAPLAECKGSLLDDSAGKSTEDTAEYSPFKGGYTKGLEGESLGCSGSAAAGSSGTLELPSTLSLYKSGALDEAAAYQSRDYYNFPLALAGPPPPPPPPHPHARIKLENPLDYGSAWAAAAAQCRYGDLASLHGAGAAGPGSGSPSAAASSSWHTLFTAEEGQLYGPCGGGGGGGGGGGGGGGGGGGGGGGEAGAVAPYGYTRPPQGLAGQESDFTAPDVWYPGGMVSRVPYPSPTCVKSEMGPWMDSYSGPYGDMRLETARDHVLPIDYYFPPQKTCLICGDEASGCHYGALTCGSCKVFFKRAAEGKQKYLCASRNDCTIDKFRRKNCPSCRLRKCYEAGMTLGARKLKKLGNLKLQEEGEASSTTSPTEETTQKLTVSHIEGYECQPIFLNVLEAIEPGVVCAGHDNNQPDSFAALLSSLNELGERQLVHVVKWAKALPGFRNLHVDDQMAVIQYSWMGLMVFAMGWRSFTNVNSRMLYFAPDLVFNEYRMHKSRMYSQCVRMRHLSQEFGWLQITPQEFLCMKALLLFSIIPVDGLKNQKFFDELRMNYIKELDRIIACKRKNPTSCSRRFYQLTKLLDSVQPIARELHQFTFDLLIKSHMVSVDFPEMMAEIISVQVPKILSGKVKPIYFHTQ
The test can be described thus: Androgen receptor transactivation assay, antiandrogenic activity: inhibition of transactivation in the presence of 1 nM DHT (CHO-AR-pMMTV-LUC cells; Table 4). It is filed as cell-based. The following applies: for Emax: intrinsic activity relative to reference antiandrogen Hydroxyflutamide (set at 100%); for EC50: antiandrogenic activity, read-out: ant EC50. The method, then:
(§1) Compounds were tested for their Androgen Receptor activity in a transactivation assay and in a binding assay.
(§2) The (anti-)androgenic activity of test compounds (EC50 and intrinsic activity) was determined in an in vitro bioassay of Chinese hamster ovary (CHO) cells stably transfected with the human androgen receptor expression plasmid and a reporter plasmid in which the MMTV-promoter is linked to the luciferase reporter gene. The cell-line CHO-AR-pMMTV-LUC 1G12-AS-CA is described in Schoonen et al. (2000), Journal of Steroid Biochemistry and Molecular Biology 74(4):213-222. The antiandrogenic activity of a test compound was determined by the inhibition of the transactivation via the androgen receptor of the enzyme luciferase in the presence of 1 nM DHT (5 α-dihydrotestosterone, 17β-hydroxy-5α-androstan-3-one). Intrinsic activity of antiandrogenic activity was determined in the presence of the reference antiandrogen 2-Hydroxy-2-methyl-N-(4-nitro-3-trifluoromethyl-phenyl)-propionamide (Hydroxyflutamide), and set at 100%. For androgenic activity, maximal intrinsic activity in the presence of 100 nM DHT was set at 100%. Table 4 Androgen receptor activity

The target of test [2] is T1, human androgen receptor. Description: cell-based. The method, then: as §1, §2
For test [3], the system named is cytoplasmic human androgen receptor. The test can be described thus: Competitive binding to cytoplasmic human androgen receptor from recombinant CHO cells (relative binding affinity). The following applies: relative to DHT; cytosol of CHO-AR-pMMTV-LUC 1G12-A5-CA cells. The source says:
Determination of competitive binding to cytoplasmic human androgen receptor from recombinant CHO cells is used to estimate the relative binding affinity (RBA) of a test compound for androgen receptors present in the cytosol prepared of the recombinant CHO cell-line, CHO-AR-pMMTV-LUC 1G12-A5-CA.

The target in test [4] is T1, human androgen receptor. Description: Androgen receptor transactivation assay, androgenic activity in the presence of 0.1 µmol/l onapristone (CHO-AR-pMMTV-LUC cells; Table 5). Conditions: for ago efficacy: maximal intrinsic activity in the presence of 100 nM DHT set at 1.00; for ago potency: potency expressed as percentage of DHT activity. Type of test: cell-based. The method, then:
The androgenic activity (EC50, potency, and efficacy) of the compounds in Table 5 was determined in an in vitro bioassay of Chinese hamster ovary (CHO) cells stably transfected with the human androgen receptor expression plasmid and a reporter plasmid in which the MMTV promotor is linked to the luciferase reporter gene. The cell line CHO-AR-pMMTV-LUC 1G12-A5-CA is described in Schoonen et al. (J. Steroid Biochem. Molec. Biol. […]; 74: 213-222). The androgen receptor activity of compounds was determined in the presence of 0.1 µmol/l onapristone. The maximal efficacy in the presence of 100 nmol/l DHT was set as 100%. The potencies are expressed as percentage of DHT activity. Table 5 Androgen receptor activity

Where [5] appears, read: androgenic activity, CHO-AR-pMMTV-LUC cells, read-out: ago EC50.
Where [6] appears, read: in the presence of 1 nM DHT, read-out: ant efficacy.

For the molecule `COc1ccc2c(Sc3ccccc3C(N)=O)cn(Cc3cc(F)cc(F)c3)c2c1` [Compound 18, 2-[1-(3,5-Difluoro-benzyl)-6-methoxy-1H-indol-3-ylsulfanyl]-benzamide], at human androgen receptor [1] (read-out: ant efficacy, in the presence of 1 nM DHT), the Emax is 20 to 50%. For the same molecule, the EC50 at human androgen receptor [2] (setting [5]) is greater than 10000 nM.

As to `COc1ccc2c(Sc3ccccc3OC)cn(Cc3cc(F)cc(F)c3)c2c1` [Compound 21], the results for the EC50 on human androgen receptor [1] (in the presence of 1 nM DHT) and at human androgen receptor [2] (setting [5]) were greater than 10000 nM and 5 to 100 nM, respectively. For the same molecule, on human androgen receptor [1] (setting [6]), the Emax was less than 20%.

Regarding `O=[N+]([O-])c1ccccc1Sc1cn(Cc2cc(F)cc(F)c2)c2cccc(F)c12` [Compound 51], the Emax on human androgen receptor [1] (setting [6]) is less than 20%. Moreover, the EC50 at human androgen receptor [2] fell in the range of 5 to 100 nM.

With `O=[N+]([O-])c1ccccc1Sc1cn(Cc2cc(F)cc(F)c2)c2ccccc12` [Compound 52], the Emax on human androgen receptor [1] (setting [6]) is less than 20%. Besides, the EC50 at human androgen receptor [2] is less than 5 nM.

Regarding `O=[N+]([O-])c1ccccc1Sc1cn(Cc2cc(F)cc(F)c2)c2ccc(O)cc12` [Compound 56], the EC50 on human androgen receptor [1] (in the presence of 1 nM DHT) was greater than 10000 nM. Moreover, the Emax at human androgen receptor [1] (setting [6]) was less than 20%; on human androgen receptor [2] (maximal intrinsic activity in the presence of 100 nM DHT set at 1.00, read-out: ago efficacy), less than 20%.

Consider `COc1ccc2c(Sc3ccccc3[N+](=O)[O-])cn(Cc3ccccc3)c2c1` [Compound 92], for which the Emax at human androgen receptor [1] (setting [6]) was less than 20%. Besides, the “relative binding affinity (RBA)” value in test [3] was greater than 1%.

`COc1ccc2c(Sc3ccccc3[N+](=O)[O-])cn(Cc3cnccn3)c2c1` [Compound 117, 6-Methoxy-3-(2-nitro-phenylsulfanyl)-1-pyrazin-2-ylmethyl-1H-indole]: at human androgen receptor [4], the ago efficacy entry is “+ (between 0.50 and 0.80)”; the ago potency result is “+ (between 1% and 5%)”.

Turning to `O=CNc1ccc2c(Sc3ccccc3[N+](=O)[O-])cn(Cc3cncnc3)c2c1` [Compound 118, N-[3-(2-Nitro-phenylsulfanyl)-1-pyrimidin-5-ylmethyl-1H-indol-6-yl]-formamide], at human androgen receptor [4], the ago efficacy entry is “+ (between 0.50 and 0.80)”; the ago potency result is given as “++ (>5%)”.

With `N#Cc1ccc2c(Sc3ccccc3[N+](=O)[O-])cn(Cc3ccccn3)c2c1` [Compound 119, 3-(2-Nitro-phenylsulfanyl)-1-pyridin-2-ylmethyl-1H-indole-6-carbonitrile], on human androgen receptor [4], the ago efficacy entry is given as “++ (≥0.80)” and the ago potency result is “++ (>5%)”.

Take `Cl.N#Cc1ccc2c(Sc3ccccc3[N+](=O)[O-])cn(Cc3ccccn3)c2c1` [Compound 120, 3-(2-Nitro-phenylsulfanyl)-1-pyridin-2-ylmethyl-1H-indole-6-carbonitrile monohydrochloride]: on human androgen receptor [4], the ago efficacy entry is recorded as “++ (≥0.80)” and the ago potency entry was “++ (>5%)”.

Regarding `N#Cc1ccc2c(Sc3ccccc3[N+](=O)[O-])cn(Cc3cccnc3)c2c1` [Compound 121, 3-(2-Nitro-phenylsulfanyl)-1-pyridin-3-ylmethyl-1H-indole-6-carbonitrile], on human androgen receptor [4], the ago efficacy result is “++ (≥0.80)”; the ago potency result was “+ (between 1% and 5%)”.

As to `N#Cc1ccc2c(Sc3ccccc3[N+](=O)[O-])cn(Cc3ccncc3)c2c1` [Compound 122, 3-(2-Nitro-phenylsulfanyl)-1-pyridin-4-ylmethyl-1H-indole-6-carbonitrile], on human androgen receptor [4], the ago efficacy result was “+ (between 0.50 and 0.80)”; the ago potency entry is “+ (between 1% and 5%)”.

`N#Cc1ccc2c(Sc3ccccc3[N+](=O)[O-])cn(Cc3cncnc3)c2c1` [Compound 123, 3-(2-Nitro-phenylsulfanyl)-1-pyrimidin-5-ylmethyl-1H-indole-6-carbonitrile]: on human androgen receptor [4], the ago efficacy result is “++ (≥0.80)” and the ago potency entry is reported as “++ (>5%)”.

In the case of `N#Cc1ccc2c(Sc3ccccc3[N+](=O)[O-])cn(Cc3ccncn3)c2c1` [Compound 124, 3-(2-Nitro-phenylsulfanyl)-1-pyrimidin-4-ylmethyl-1H-indole-6-carbonitrile], on human androgen receptor [4], the ago efficacy result was “++ (≥0.80)” and the ago potency result is “++ (>5%)”.

`N#Cc1cccc(Cn2cc(Sc3ccccc3[N+](=O)[O-])c3ccc(C#N)cc32)c1` [Compound 125, 1-(3-Cyano-benzyl)-3-(2-nitro-phenylsulfanyl)-1H-indole-6-carbonitrile]: at human androgen receptor [4], the ago efficacy entry is given as “++ (≥0.80)”; the ago potency result was “+ (between 1% and 5%)”.
